The source of these data is patent US20210380548A1, “Fused [1,2,4]Thiadiazine Derivatives Which Act as KAT Inhibitors of the MYST Family” (CTxT Pty Limited, priority 2017, published 2021).

Experiment [1] addresses T1, TIP60-KAT5 (Homo sapiens, UniProt Q92993).
T1 construct: encoding amino acid residues 2 to 461 (Uniprot Q92993-2) of human KAT5 isoform; made in house; host or cells: E. coli BL21 DE3
Briefly: Revised Acetyltransferase Biochemical Assay, KAT5. The conditions noted are these: 10 nM KAT5, 1 μM AcCoA, 100 nM histone H4, 90 min.

For experiment [2], the target named is T2, MOZ-KAT6A (Homo sapiens, UniProt Q92794, A567V).
T2 construct: encoding amino acid residues 507 to 778 (Uniprot Q92794-1) of human KAT6A; made in house; host or cells: E. coli BL21 DE3
Briefly: Revised Acetyltransferase Biochemical Assay, KAT6A. The conditions noted are these: Table 8 (MOZ-KAT6A), 1 μM Acetyl coenzyme A.

Experiment [3] deals with T3, HBO-KAT7 (Homo sapiens, UniProt O95251).
T3 construct: encoding amino acid residues 325 to 611 (Uniprot 095251-1) of human KAT7; made in house; host or cells: E. coli BL21 DE3 RIL
Nature of the experiment: Revised Acetyltransferase Biochemical Assay, KAT7. The conditions noted are these: Table 9 (HBO-KAT7), 1 μM Acetyl coenzyme A.

Experiment [4] has as its target T1, TIP60-KAT5. Nature of the experiment: Acetyltransferase biochemical assay (AlphaScreen), KAT5. The settings on record: Table 1 (TIP60-KAT5); 0.4 μM Acetyl coenzyme A, histone H4, 10 nM enzyme. (Alpha assays give light when donor and acceptor beads are brought close together.)
Experiment [5] addresses T3, HBO-KAT7. Briefly: Acetyltransferase biochemical assay (AlphaScreen), KAT7. The settings on record: Table 3 (HBO-KAT7); 0.4 μM Acetyl coenzyme A, histone H3.1, 40 nM enzyme.

Where only a bound is given, the exact number is not on record here.

T3 sequence (O95251 with tags, fused parts or gaps): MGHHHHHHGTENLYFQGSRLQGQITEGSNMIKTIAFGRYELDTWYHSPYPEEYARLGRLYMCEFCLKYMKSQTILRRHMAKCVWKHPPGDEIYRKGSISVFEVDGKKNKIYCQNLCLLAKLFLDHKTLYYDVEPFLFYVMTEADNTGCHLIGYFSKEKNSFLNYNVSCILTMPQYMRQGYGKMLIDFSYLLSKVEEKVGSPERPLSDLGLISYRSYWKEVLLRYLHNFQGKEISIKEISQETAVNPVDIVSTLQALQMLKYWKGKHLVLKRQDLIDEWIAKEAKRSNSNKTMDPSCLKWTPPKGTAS
T1 sequence (Q92993 2-461 isoform Q92993-2): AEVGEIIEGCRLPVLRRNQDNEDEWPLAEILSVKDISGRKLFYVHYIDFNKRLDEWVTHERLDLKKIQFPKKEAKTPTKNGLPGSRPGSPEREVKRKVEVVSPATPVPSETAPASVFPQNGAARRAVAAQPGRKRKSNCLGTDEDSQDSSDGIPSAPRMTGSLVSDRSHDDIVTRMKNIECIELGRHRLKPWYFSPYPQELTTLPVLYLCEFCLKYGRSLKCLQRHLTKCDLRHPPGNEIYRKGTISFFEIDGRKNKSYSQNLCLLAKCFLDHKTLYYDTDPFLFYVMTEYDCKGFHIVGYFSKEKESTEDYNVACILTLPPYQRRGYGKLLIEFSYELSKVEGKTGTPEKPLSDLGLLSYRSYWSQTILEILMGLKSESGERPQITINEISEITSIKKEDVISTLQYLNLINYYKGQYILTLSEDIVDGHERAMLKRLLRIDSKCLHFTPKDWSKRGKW
T2 sequence (Q92794 507-778 A567V limits assumed): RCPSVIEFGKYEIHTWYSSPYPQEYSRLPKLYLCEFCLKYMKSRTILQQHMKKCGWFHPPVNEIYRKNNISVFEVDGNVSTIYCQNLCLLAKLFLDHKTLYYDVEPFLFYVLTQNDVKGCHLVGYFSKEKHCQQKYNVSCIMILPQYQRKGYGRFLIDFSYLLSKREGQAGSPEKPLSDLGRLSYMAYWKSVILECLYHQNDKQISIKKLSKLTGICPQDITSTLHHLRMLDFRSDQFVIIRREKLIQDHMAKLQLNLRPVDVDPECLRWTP

As a reminder, the IC50 is the concentration needed to halve the response being measured. Read a high IC50 as weaker potency. With `COc1ccccc1C(O)CNC(=O)C1=Nc2ccc(I)cc2S(=O)(=O)N1` (single isomer, unassigned) [Example 150], the IC50 in experiment [1] worked out at 1.38 µM; in experiment [2] it was 1020 nM; in experiment [3] it was 3590 nM; in experiment [4], 3.17 µM.

Take `Cc1ncccc1-c1ccccc1CCNC(=O)C1=Nc2ccccc2S(=O)(=O)N1` [Example 6, N-(2-(2-Methylpyridin-3-yl)phenethyl)-2H-benzo[e][1,2,4]thiadiazine-3-carboxamide 1,1-dioxide]: the IC50 is greater than 125 µM in experiment [1], 18700 nM in experiment [2], 21300 nM in experiment [3] and 90.1 µM in experiment [4].

In turn, `O=C(NCCc1ccccc1C(=O)O)C1=Nc2ccccc2S(=O)(=O)N1` [Example 30, 2-(2-(1,1-Dioxido-2H-benzo[e][1,2,4]thiadiazine-3-carboxamido)ethyl)benzoic Acid] displayed an IC50 in experiment [4] of 112 µM.

As for `Cn1cc(-c2ccccc2CCNC(=O)C2=Nc3ccccc3S(=O)(=O)N2)cn1` [Example 40, N-(2-(1-methyl-1H-pyrazol-4-yl)phenethyl)-2H-benzo[e][1,2,4]thiadiazine-3-carboxamide 1,1-dioxide], the IC50 is 9.45 µM in experiment [5] and greater than 125 µM in experiment [4].

Take `C#Cc1ccc2c(c1)S(=O)(=O)NC(C(=O)NCC(c1ccccc1)c1ncco1)=N2` (stereo not drawn) [Example 42, 7-ethynyl-N-(2-(oxazol-2-yl)-2-phenylethyl)-2H-benzo[e][1,2,4]thiadiazine-3-carboxamide 1,1-dioxide]: the IC50 was 0.255 µM in experiment [5] and 0.642 µM in experiment [4].

`O=C(NCC(C(=O)N1CCCC1)c1ccccc1)C1=Nc2ccccc2S(=O)(=O)N1` (stereo not drawn) [Example 44, N-(3-oxo-2-phenyl-3-(pyrrolidin-1-yl)propyl)-2H-benzo[e][1,2,4]thiadiazine-3-carboxamide 1,1-dioxide] had an IC50 in experiment [4] greater than 125 µM.

On to `CC(C)OC(=O)NC(CNC(=O)C1=Nc2ccccc2S(=O)(=O)N1)c1ccccc1` (stereo not drawn) [Example 50, Isopropyl (2-(1,1-dioxido-2H-benzo[e][1,2,4]thiadiazine-3-carboxamido)-1-phenylethyl) carbamate], for which the IC50 in experiment [1] was greater than 125 µM; in experiment [2], 6190 nM; in experiment [3] it was 49100 nM.

As for `COC(CNC(=O)C1=Nc2ccc(I)cc2S(=O)(=O)N1)c1ccccc1OC(F)F` (stereo not drawn) [Example 58, N-(2-(2-(difluoromethoxy)phenyl)-2-methoxyethyl)-7-iodo-2H-benzo[e][1,2,4]thiadiazine-3-carboxamide 1,1-dioxide], the values for the IC50 in experiment [5] and in experiment [4] were 1.59 µM and 2.58 µM, respectively.

As for `CCOC(=O)C(CNC(=O)C1=Nc2ccccc2S(=O)(=O)N1)c1ccccc1` (stereo not drawn) [Example 73, ethyl 3-(1,1-dioxido-2H-benzo[e][1,2,4]thiadiazine-3-carboxamido)-2-phenylpropanoate], the IC50 in experiment [5] amounted to 26.4 µM; in experiment [4], 10.1 µM.

For the molecule `O=C(NCC(O)c1ccccc1F)C1=Nc2ccc(I)cc2S(=O)(=O)N1` (stereo not drawn) [Example 89], the results for the IC50 in experiment [5] and in experiment [4] were 3.37 µM and 2.06 µM, respectively.

Consider `O=C(NCCc1ccccc1O)C1=Nc2ccc(I)cc2S(=O)(=O)N1` [Example 90], for which the IC50 was 0.915 µM in experiment [5] and 0.96 µM in experiment [4].

`COc1ccccc1C(O)CNC(=O)C1=Nc2ccc(I)cc2S(=O)(=O)N1` (stereo not drawn) [Example 94]: the values for the IC50 in experiment [5] and in experiment [4] were 3.8 µM and 2.82 µM, respectively.

Consider `O=C(NCC(O)c1ccccc1C(F)(F)F)C1=Nc2ccc(I)cc2S(=O)(=O)N1` (stereo not drawn) [Example 95], for which the IC50 in experiment [5] was 4.22 µM; in experiment [4], 5.18 µM.

Regarding `O=C(NCCc1ccc(CO)cc1)C1=Nc2ccc(I)cc2S(=O)(=O)N1` [Example 103], the IC50 in experiment [5] and in experiment [4] was greater than 125 µM throughout.

Consider `O=C(NCCc1ccncc1)C1=Nc2ccc(I)cc2S(=O)(=O)N1` [Example 104], for which the IC50 in experiment [5] and in experiment [4] was greater than 125 µM each time.

For `O=C(NCCc1ccc(O)cc1)C1=Nc2ccc(I)cc2S(=O)(=O)N1` [Example 105], the results for the IC50 in experiment [5] and in experiment [4] were greater than 125 µM and 46.3 µM, respectively.

For the molecule `COc1ccc(CCNC(=O)C2=Nc3ccc(I)cc3S(=O)(=O)N2)cc1` [Example 106], the IC50 in experiment [5] and in experiment [4] was greater than 125 µM each time.

Turning to `O=C(NCCc1ccccc1CO)C1=Nc2ccc(I)cc2S(=O)(=O)N1` [Example 109, N-(2-(hydroxymethyl)phenethyl)-7-iodo-2H-benzo[e][1,2,4]thiadiazine-3-carboxamide 1,1-dioxide], the IC50 in experiment [5] was found to be 5.95 µM; in experiment [4], 3.42 µM.

Turning to `O=C(NCCc1ccccc1C(=O)O)C1=Nc2ccc(I)cc2S(=O)(=O)N1` [Example 155, 2-(2-(7-Iodo-1,1-dioxido-2H-benzo[e][1,2,4]thiadiazine-3-carboxamido)ethyl)benzoic Acid], the IC50 in experiment [1] turned out to be 2.68 µM; in experiment [2], 595 nM; in experiment [3], 9520 nM.

Turning to `O=C(NCC(c1ccccc1)c1nnc(C(F)F)o1)C1=Nc2ccc(I)cc2S(=O)(=O)N1` (stereo not drawn) [Example 185], the IC50 was found to be 0.994 µM in experiment [1], 42 nM in experiment [2] and 264 nM in experiment [3].

In the case of `O=C(NCCc1ccccc1-n1ccnc1)C1=Nc2ccc(I)cc2S(=O)(=O)N1` [Example 192], the IC50 in experiment [1] turned out to be 11.1 µM; in experiment [2] it was 613 nM; in experiment [3], 2300 nM.

Consider `COCc1ccccc1C(CNC(=O)C1=Nc2ccccc2S(=O)(=O)N1)c1ncco1` (stereo not drawn) [Example 194], for which the IC50 in experiment [1] was no less than 125 µM; in experiment [2] it was 5560 nM; in experiment [3], 26000 nM.

Take `O=C(NCCc1ccccc1-c1n[nH]c(=O)o1)C1=Nc2ccccc2S(=O)(=O)N1` [Example 195]: the IC50 in experiment [1] was 1.85 µM; in experiment [2], 209 nM; in experiment [3], 2210 nM.

In the case of `O=C(NCC(O)C1CCCCC1)C1=Nc2ccc(Cl)cc2S(=O)(=O)N1` (stereo not drawn) [Example 200], the IC50 in experiment [1] is greater than 125 µM; in experiment [2], 9800 nM; in experiment [3], greater than 125000 nM.

With `O=C(NCC1(c2ccccc2)CCCC1)C1=Nc2ccccc2S(=O)(=O)N1` [Example 205], the IC50 in experiment [1] amounted to 30 µM; in experiment [2] it was 970 nM; in experiment [3] it was 2730 nM.

For `CC(N)c1ccc2c(c1)S(=O)(=O)NC(C(=O)NCC(c1ccccc1)c1ncco1)=N2` (stereo not drawn) [Example 208, 7-(1-Aminoethyl)-N-(2-(oxazol-2-yl)-2-phenylethyl)-2H-benzo[e][1,2,4]thiadiazine-3-carboxamide 1,1-dioxide], the IC50 is 13.3 µM in experiment [1], 1600 nM in experiment [2] and 4510 nM in experiment [3].

Take `CNC(C)c1ccc2c(c1)S(=O)(=O)NC(C(=O)NCC(c1ccccc1)c1ncco1)=N2` (stereo not drawn) [Example 209, 7-(1-(Methylamino)ethyl)-N-(2-(oxazol-2-yl)-2-phenylethyl)-2H-benzo[e][1,2,4]thiadiazine-3-carboxamide 1,1-dioxide]: the values for the IC50 in experiment [1], in experiment [2] and in experiment [3] were 8.45 µM, 378 nM and 1670 nM, respectively.

As for `CC(NS(C)(=O)=O)c1ccc2c(c1)S(=O)(=O)NC(C(=O)NCC(c1ccccc1)c1ncco1)=N2` (stereo not drawn) [Example 210, 7-(1-(Methylsulfonamido)ethyl)-N-(2-(oxazol-2-yl)-2-phenylethyl)-2H-benzo[e][1,2,4]thiadiazine-3-carboxamide 1,1-dioxide], the concentration for half-maximal inhibition (IC50) in experiment [1] amounted to 10.9 µM; in experiment [2], 303 nM; in experiment [3] it was 1120 nM.

With `CC(=O)NC(C)c1ccc2c(c1)S(=O)(=O)NC(C(=O)NCC(c1ccccc1)c1ncco1)=N2` (stereo not drawn) [Example 211, 7-(1-Acetamidoethyl)-N-(2-(oxazol-2-yl)-2-phenylethyl)-2H-benzo[e][1,2,4]thiadiazine-3-carboxamide 1,1-dioxide], the IC50 in experiment [1] was determined as 24.7 µM; in experiment [2] it was 2180 nM; in experiment [3] it was 6070 nM.

In the case of `COc1ccc2c(c1)S(=O)(=O)NC(C(=O)NCC(c1cccc(Cl)c1)c1ncco1)=N2` (stereo not drawn) [Example 223, N-(2-(3-Chlorophenyl)-2-(oxazol-2-yl)ethyl)-7-methoxy-2H-benzo[e][1,2,4]thiadiazine-3-carboxamide 1,1-dioxide], the IC50 came to 3.32 µM in experiment [1], 216 nM in experiment [2] and 1010 nM in experiment [3].

Regarding `O=C(NCC(c1cccc(Cl)c1)c1ncco1)C1=Nc2ccc(O)cc2S(=O)(=O)N1` (stereo not drawn) [Example 224, N-(2-(3-chlorophenyl)-2-(oxazol-2-yl)ethyl)-7-hydroxy-2H-benzo[e][1,2,4]thiadiazine-3-carboxamide 1,1-dioxide], the IC50 in experiment [1] came to 9.01 µM; in experiment [2], 165 nM; in experiment [3] it was 204 nM.

For the molecule `NC(=O)c1ccccc1CCNC(=O)C1=Nc2ccc(I)cc2S(=O)(=O)N1` [Example 230, N-(2-Carbamoylphenethyl)-7-iodo-2H-benzo[e][1,2,4]thiadiazine-3-carboxamide 1,1-dioxide], the figures for the IC50 in experiment [1], in experiment [2] and in experiment [3] were 4.9 µM, 761 nM and 2300 nM, respectively.

As to `O=C(NCC1(c2ncco2)CCCC1)C1=Nc2ccccc2S(=O)(=O)N1` [Example 242, N-((1-(oxazol-2-yl)cyclopentyl)methyl)-2H-benzo[e][1,2,4]thiadiazine-3-carboxamide 1,1-dioxide], the IC50 came out at 123 µM in experiment [1], 2770 nM in experiment [2] and 33000 nM in experiment [3].
